Laboratory results: patent US8673866B2, “Stabilized formulation for oral administration of therapeutic agents and related methods” (The University of British Columbia, priority 2009, dated 2014)
Several values for one entry are separate records, joined by “and”; a condition that tells them apart may be missing. Identical values can stand only once.

What was measured:
[1] = tested on: Leishmania; settings: visceral leishmaniasis, IV administration; cited from earlier work
[2] = crystalline; cited from earlier work
[3] = oral; cited from earlier work
[4] = tested on: Leishmania donovani LV82; test: Visceral leishmaniasis-infected murine model (liver LDU, BALB/c mice); type: in vivo
Method: (§1) To determine the anti-leishmanial activity of a representative oral AmpB formulation, the following studies were completed. BALB/c mice were intravenously infected with 5×10^7 Leishmania donovani LV82 promastigotes (obtained by culturing amastigotes taken directly from the spleen of an infected hamster) seven days prior to treatment. Following the seven days, mice were either administered five daily doses of miltefosine at 3 mg/kg po, or Formulation A at 2.5, 5, and 10 mg/kg po bid for five consecutive days or 20 mg/kg po qd for five consecutive days. Appropriate vehicle controls were also assessed. Animals were sacrificed 14 days post infection and Leishman-Donovan units (LDU) were assessed in livers of mice post mortem via microscopic enumeration of Giemsa-stained liver smears

[5] = Body and organ weights in the murine VL model; type: in vivo, BALB/c mice
Method: as §1

[6] = 3 mg/kg p.o. qd, individual mice

SMILES | cure rate [1] | solubility in water [2] | bioavailability [3] | LDU mean ± SD ([4]; 3 mg/kg p.o. qd, group mean (n=4)) | LDU [4, 6] | # of amastigotes per 200 nuclei ([4]; 3 mg/kg p.o. qd, liver smears, individual mice) | % Reduction compared to Vehicle control (Average) ([4]; 3 mg/kg, p.o. qd) | % Reduction compared to water control (Average) ([4]; 3 mg/kg, p.o. qd) | inhibition of liver parasites ([4]; five daily doses at 3 mg/kg po) | Body Weight [5, 6] | Mean Body Weight Post-treatment ([5]; 3 mg/kg, p.o. qd) | Mean Body Weight Pre-treatment ([5]; 3 mg/kg, p.o. qd)
C[C@@H]1[C@H](O)[C@@H](C)/C=C/C=C/C=C/C=C/C=C/C=C/C=C/[C@H](O[C@@H]2O[C@H](C)[C@@H](O)[C@H](N)[C@@H]2O)C[C@@H]2O[C@](O)(C[C@@H](O)C[C@@H](O)[C@H](O)CC[C@@H](O)C[C@@H](O)CC(=O)O[C@H]1C)C[C@H](O)[C@H]2C(=O)O (relative stereo) [amphotericin B, [1R-(1R*,3S*,5R*,6R*,9R*,11R*,15S*,16R*,17R*,18S*,19E,21E,23E,25E, 27E,29E,31E,33R*,35S*,36R*,37S,)]-33-[(3-amino-3,6-dideoxy-β-D-mannopyranosyl)oxy]1,3,5,6,9,11,17,37-octahydroxy-15,16,18-trimethyl-13-oxo-14,39-dioxabicyclo-[33.3.1]nonatriaconta-19,21,23,25,27,29,31-heptaene-36-carboxylic acid] | 97% | insoluble | negligible |  |  |  |  |  |  |  |  | 
CCCCCCCCCCCCCCCCOP(=O)([O-])OCC[N+](C)(C)C [Miltefosine, miltefosine] |  |  |  | 1537.604 | 1581.58 and 1431.131 and 1736.921 and 1400.783 | 286 and 283 and 301 and 262 | 51.7% | 49.3% | 47.5±7.0% | 19.8 g (2×) and 18.8 g and 18.5 g | 19.2 g | 19.3 g
